Among the test systems are DLD-1 colon; DMS 114 small cell lung; HCT-15 colon; LXFL 529 NSCLC; M19-MEL melanoma; SNB-19 CNS; DMS 273 small cell lung; HOP-18 NSCLC; SNB-78 CNS; 786-0 renal; M14 melanoma; KM20L2 colon; RXF 393 renal; XF 498 CNS.
What all share (test): NCI anticancer screen, dose series, 48 h

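Values below derive from 48-hour exposures of cells grown in 96-well plates, with endpoints linearly interpolated between the two concentrations bracketing the appropriate inhibition level. TGI marks complete inhibition of growth.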 Some results are limits rather than exact numbers.

On to `C[n+]1ccc(-c2cc[n+](C)cc2)cc1`, for which the TGI in the test with DLD-1 colon is greater than 47.2 µM; in the test with DMS 114 small cell lung it was greater than 24.7 µM; with HCT-15 colon, greater than 52.3 µM; in the test with LXFL 529 NSCLC it was greater than 53.3 µM; in the test on M19-MEL melanoma it was greater than 21.6 µM; in the test with SNB-19 CNS it was greater than 100 µM. The TGI in the test with DMS 273 small cell lung was greater than 38.5 µM; in the test on HOP-18 NSCLC, greater than 100 µM; with SNB-78 CNS it was greater than 58.4 µM; in the test on 786-0 renal, greater than 100 µM; in the test with M14 melanoma, greater than 35.9 µM; in the test with KM20L2 colon it was greater than 100 µM. Also, the TGI came to 3.93 µM with RXF 393 renal and 17 µM in the test with XF 498 CNS.
Turning to `Cc1cc(=O)oc2c1cc(OCC(=O)OCCN1CCCCC1)c1occ(C)c12`, the TGI in the test with DLD-1 colon, in the test with DMS 114 small cell lung, with HCT-15 colon, in the test on LXFL 529 NSCLC, in the test on M19-MEL melanoma and in the test on SNB-19 CNS was greater than 100 µM throughout. Also, the TGI with DMS 273 small cell lung, in the test on HOP-18 NSCLC, in the test on SNB-78 CNS, with 786-0 renal, with M14 melanoma and with KM20L2 colon was greater than 100 µM each time. Further, the TGI in the test on RXF 393 renal and in the test on XF 498 CNS was greater than 100 µM in each case.

For the origin of these results see PubChem BioAssay (NCI).
